US12064508B2, “Compositions and methods for nasal administration of drugs to brain and for systemic effect” (priority 2017, dated 2024)

Test system: nasal cavity
Experiment: Local safety: histopathology of the nasal cavity
Conditions: intranasal 15 μl/rat twice a day for one week
Experimental: The effect of phospholipid magnesome on the nasal cavity was evaluated in rats.
The animals received the treatments twice a day for one week. […] Sections of the nasal cavity were cut serially at 7 μm thickness and stained with Hematoxylin & Eosin. […] Local toxicity was assessed by evaluating the histopathological alterations in different regions of the nasal cavity (cartilage and turbinate bone, lamina propria and submucosa, mucosal epithelium and lumen).

CCCCCCCCCCCCOS(=O)(=O)[O-].[Na+] [SLS, Sodium lauryl sulfate]
histopathological findings in the nasal cavity: minimal proteinaceous material in the lumen and focal aggregations of neutrophils
